Counter-ions that a name gives are not always drawn.
Structure (SMILES)	melting point
CC(C)OC(=O)N1CCN(c2ccc3ncc(-c4ccccc4)n3n2)CC1 (as salt: hydrochloride) [4-(3-Phenyl-imidazo[1,2-b]pyridazin-6-yl)-piperazine-1-carboxylic acid isopropyl ester]	232 to 233 °C (dec.)
CC(C)N(CCNc1ccc2ncc(Br)n2n1)C(=O)OC(C)(C)C [Example 5.6.72, [2-(3-Bromo-imidazo[1,2-b]pyridazin-6-ylamino)-ethyl]-isopropyl-carbamic acid tert-butyl ester]	154 to 155 °C
COc1cnccc1-c1cnc2ccc(N3CCN(C(=O)OC(C)C)CC3)nn12 (as salt: hydrochloride) [Example 5.6.103, 4-[3-(3-Methoxy-pyridin-4-yl)-imidazo[1,2-b]pyridazin-6-yl]-piperazine-1-carboxylic acid isopropyl ester]	217 to 218 °C (dec.)
COc1ccccc1-c1cnc2ccc(N3CCN(C(=O)OC(C)C)CC3)nn12 (as salt: hydrochloride) [Example 5.6.115, 4-[3-(2-Methoxy-phenyl)-imidazo[1,2-b]pyridazin-6-yl]-piperazine-1-carboxylic acid isopropyl ester]	243 to 244 °C (dec.)
CC(C)OC(=O)N1CCN(c2ccc3ncc(-c4ccccc4OC(C)C)n3n2)CC1 (as salt: hydrochloride) [Example 5.6.145, 4-[3-(2-Isopropoxy-phenyl)-imidazo[1,2-b]pyridazin-6-yl]-piperazine-1-carboxylic acid isopropyl ester]	216 to 217 °C (dec.)
CN(CCNc1ccc2ncc(Br)n2n1)C(=O)OC(C)(C)C [Example 5.6.56, [2-(3-Bromo-imidazo[1,2-b]pyridazin-6-ylamino)-ethyl]-methyl-carbamic acid tert-butyl ester]	128 to 129 °C
CC(=O)c1ccc(-c2cnc3ccc(N(C)CCCNC(=O)OC(C)(C)C)nn23)s1 [Example 5.6.27, (3-{[3-(5-Acetyl-thiophen-2-yl)-imidazo[1,2-b]pyridazin-6-yl]-methyl-amino}-propyl)-carbamic acid tert-butyl ester]	148 to 149 °C
CCCCNc1ccc2ncc(-c3ccc(-c4noc(=O)[nH]4)cc3)n2n1 [Example 5.6.49, 3-[4-(6-Butylamino-imidazo[1,2-b]pyridazin-3-yl)-phenyl]-4H-[1,2,4]oxadiazol-5-one]	253 to 254 °C (dec.)
CC(C)OC(=O)N1CCN(c2ccc3ncc(Br)n3n2)C(C)C1 (racemic) [Example 5.6.146, Isopropyl 4-(3-bromoimidazo[1,2-b]pyridazin-6-yl)-3-methylpiperazine-1-carboxylate]	52 to 54 °C
COc1cnccc1-c1cnc2ccc(N3CCN(C(=O)CC(C)(C)C)CC3)nn12 (as salt: hydrochloride) [Example 5.6.114, 1-(4-(3-(3-Methoxypyridin-4-yl)imidazo[1,2-b]pyridazin-6-yl)piperazin-1-yl)-3,3-dimethylbutan-1-one]	211 to 212 °C (dec.)
CC(C)(C)C(=O)N1CCN(c2ccc3ncc(-c4ccccc4)n3n2)CC1 (as salt: hydrochloride) [Example 5.6.125, 2,2-Dimethyl-1-[4-(3-phenyl-imidazo[1,2-b]pyridazin-6-yl)-piperazin-1-yl]-propan-1-one]	277 to 278 °C (dec.)
CC(C)OC(=O)N1CCN(c2ccc3ncc(-c4ccncc4)n3n2)CC1 (as salt: hydrochloride) [Example 5.6.108, 4-(3-Pyridin-4-yl-imidazo[1,2-b]pyridazin-6-yl)-piperazine-1-carboxylic acid isopropyl ester]	195 to 196 °C (dec.)
CC(C)(C)OC(=O)N1CCC[C@H]1CNc1ccc2ncc(I)n2n1 [Example 5.6.107, (S)-2-[(3-Iodo-imidazo[1,2-b]pyridazin-6-ylamino)-methyl]-pyrrolidine-1-carboxylic acid tert-butyl ester]	138 to 139 °C
